{"source": "patent US6002023A", "about": "“2-debenzoyl-2-acyl taxol derivatives and method for making same” (Virginia Tech Intellectural Properties, Inc., priority 1997, dated 1999)", "origin": "cited, not measured here", "details": "in some assays; cited from earlier work"}
{"smiles": "CC(=O)O[C@@]12CO[C@@H]1C[C@H](O)[C@@]1(C)C(=O)[C@H](O)C3=C(C)[C@@H](OC(=O)[C@H](O)[C@@H](NC(=O)OC(C)(C)C)c4ccccc4)C[C@@](O)([C@@H](OC(=O)c4ccccc4)[C@H]21)C3(C)C", "note": "[Taxotere]", "values": [{"measurement": "activity relative to taxol", "result": "approximately twice as active as taxol"}]}
